# In US8889874B2, “Imidazolone-chalcone derivatives as potential anticancer agent and process for the preparation thereof” (Council of Scientific and Industrial Research, priority 2010, dated 2014):
# Like-named read-outs stand apart in the source and are kept apart here.
# Columns and labels:
# Format in all cases: cell-based, human
# 786-0 (renal) = assay: NCI anticancer screen, SRB assay, 48 h; conditions: Homo sapiens
# Outline: (§1)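 Sulforhodamine B protein assay read cell growth after 48 h of continuous compound exposure. Dose-response curves per cell line used at least five 10-fold-diluted concentrations, within a panel of fifty-three human lines from nine tumour types.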
# A498 (renal) = assay: NCI anticancer screen, SRB assay, 48 h; conditions: Homo sapiens
# Outline: as §1
# [1] = tested on: A549/ATCC (non-small cell lung); assay: NCI anticancer screen, SRB assay, 48 h; conditions: Homo sapiens
# Outline: as §1
# ACHN (renal) = assay: NCI anticancer screen, SRB assay, 48 h; conditions: Homo sapiens
# Outline: as §1
# CAKI-1 (renal) = assay: NCI anticancer screen, SRB assay, 48 h; conditions: Homo sapiens
# Outline: as §1
# [2] = tested on: EKVX (non-small cell lung); assay: NCI anticancer screen, SRB assay, 48 h; conditions: Homo sapiens
# Outline: as §1
# [3] = tested on: HOP-92 (non-small cell lung); assay: NCI anticancer screen, SRB assay, 48 h; conditions: Homo sapiens
# Outline: as §1
# HS 578T (breast) = assay: NCI anticancer screen, SRB assay, 48 h; conditions: Homo sapiens
# Outline: as §1
# [4] = tested on: K-562 (leukemia cell line); assay: NCI anticancer screen, SRB assay, 48 h; conditions: Homo sapiens
# Outline: as §1
# KM12 (colon) = assay: NCI anticancer screen, SRB assay, 48 h; conditions: Homo sapiens
# Outline: as §1
# MALME-3M (melanoma) = assay: NCI anticancer screen, SRB assay, 48 h; conditions: Homo sapiens
# Outline: as §1
# [5] = tested on: NCI-H226 (non-small cell lung); assay: NCI anticancer screen, SRB assay, 48 h; conditions: Homo sapiens
# Outline: as §1
# [6] = tested on: NCI-H23 (non-small cell lung); assay: NCI anticancer screen, SRB assay, 48 h; conditions: Homo sapiens
# Outline: as §1
# [7] = tested on: NCI-H460 (non-small cell lung); assay: NCI anticancer screen, SRB assay, 48 h; conditions: Homo sapiens
# Outline: as §1
# OVCAR-8 (ovarian) = assay: NCI anticancer screen, SRB assay, 48 h; conditions: Homo sapiens
# Outline: as §1
# SF-539 (CNS) = assay: NCI anticancer screen, SRB assay, 48 h; conditions: Homo sapiens
# Outline: as §1
# SK-MEL-28 (melanoma) = assay: NCI anticancer screen, SRB assay, 48 h; conditions: Homo sapiens
# Outline: as §1
# SK-MEL-5 (melanoma) = assay: NCI anticancer screen, SRB assay, 48 h; conditions: Homo sapiens
# Outline: as §1
# SK-OV-3 (ovarian) = assay: NCI anticancer screen, SRB assay, 48 h; conditions: Homo sapiens
# Outline: as §1
# SN12C (renal) = assay: NCI anticancer screen, SRB assay, 48 h; conditions: Homo sapiens, SN12C
# Outline: as §1
# SNB-19 (CNS) = assay: NCI anticancer screen, SRB assay, 48 h; conditions: Homo sapiens
# Outline: as §1
# SW-620 (colon) = assay: NCI anticancer screen, SRB assay, 48 h; conditions: Homo sapiens
# Outline: as §1
# TD-47D (breast) = assay: NCI anticancer screen, SRB assay, 48 h; conditions: Homo sapiens
# Outline: as §1
# UACC-257 (melanoma) = assay: NCI anticancer screen, SRB assay, 48 h; conditions: Homo sapiens
# Outline: as §1
# Breast cancer cell lines = assay: NCI anticancer screen, SRB assay, panel summary; conditions: Homo sapiens
# Outline: as §1
# CNS cancer cell lines = assay: NCI anticancer screen, SRB assay, panel summary; conditions: for GI50: Homo sapiens
# Outline: as §1
# Colon cancer cell lines = assay: NCI anticancer screen, SRB assay, panel summary; conditions: for GI50: Homo sapiens
# Outline: as §1
# [8] = tested on: Leukemia cancer cell lines; assay: NCI anticancer screen, SRB assay, panel summary; conditions: Homo sapiens
# Outline: as §1
# [9] = tested on: Melanoma cancer cell lines; assay: NCI anticancer screen, SRB assay, panel summary; conditions: for GI50: Homo sapiens
# Outline: as §1
# [10] = tested on: Non-small cell lung cancer cell lines; assay: NCI anticancer screen, SRB assay, panel summary; conditions: Homo sapiens
# Outline: as §1
# [11] = tested on: Ovarian cancer cell lines; assay: NCI anticancer screen, SRB assay, panel summary; conditions: Homo sapiens
# Outline: as §1
# [12] = tested on: Prostate cancer cell lines; assay: NCI anticancer screen, SRB assay, panel summary
# Outline: as §1
# Renal cancer cell lines = assay: NCI anticancer screen, SRB assay, panel summary; conditions: Homo sapiens
# Outline: as §1
# [13] = 48 h exposure, SRB, read-out: GI50
# [14] = read-out: pGI50 (-log of molar concentration causing 50% inhibition of net cell growth) (converted)
compound,measurement,setting,value
"COc1cc(/C=C/C(=O)c2cccc(-n3cc(-c4ccc(Cl)cc4)[nH]c3=O)c2)ccc1O [3f, 4-(4-chlorophenyl)-1-3-[(E)-3-(4-hydroxy-3-methoxyphenyl)-2-propenoyl]phenyl-2,3-dihydro-1H-2-imidazolone]",GI50,786-0 (renal); [13],2070 nM
same,GI50,786-0 (renal); [14],2090 nM
same,GI50,A498 (renal); [13],2820 nM
same,GI50,A498 (renal); [14],2820 nM
same,GI50,[1]; [13],6780 nM
same,GI50,[1]; [14],6760 nM
same,GI50,ACHN (renal); [13],2190 nM
same,GI50,ACHN (renal); [14],2190 nM
same,GI50,CAKI-1 (renal); [13],2640 nM
same,GI50,CAKI-1 (renal); [14],2630 nM
same,GI50,[2]; [13],9610 nM
same,GI50,[2]; [14],9550 nM
same,GI50,[3]; [13],1260 nM
same,GI50,[3]; [14],1260 nM
same,GI50,HS 578T (breast); [13],4670 nM
same,GI50,HS 578T (breast); [14],4680 nM
same,GI50,"[4]; K562, 48 h exposure, SRB, read-out: GI50",1420 nM
same,GI50,"[4]; K562, read-out: pGI50 (-log of molar concentration causing 50% inhibition of net cell growth) (converted)",1410 nM
same,GI50,KM12 (colon); [13],1480 nM
same,GI50,KM12 (colon); [14],1480 nM
same,GI50,"MALME-3M (melanoma); Malme-3M, read-out: pGI50 (-log of molar concentration causing 50% inhibition of net cell growth) (converted)",3090 nM
same,GI50,"MALME-3M (melanoma); MALME-3M, 48 h exposure, SRB, read-out: GI50",3060 nM
same,GI50,[5]; [13],2770 nM
same,GI50,[5]; [14],2750 nM
same,GI50,[6]; [13],3180 nM
same,GI50,[6]; [14],3160 nM
same,GI50,[7]; [13],3900 nM
same,GI50,[7]; [14],3890 nM
same,GI50,OVCAR-8 (ovarian); [13],4180 nM
same,GI50,OVCAR-8 (ovarian); [14],4170 nM
same,GI50,SF-539 (CNS); [13],1780 nM
same,GI50,SF-539 (CNS); [14],1780 nM
same,GI50,SK-MEL-28 (melanoma); [13],2060 nM
same,GI50,SK-MEL-28 (melanoma); [14],2040 nM
same,GI50,SK-MEL-5 (melanoma); [13],1800 nM
same,GI50,SK-MEL-5 (melanoma); [14],1820 nM
same,GI50,SK-OV-3 (ovarian); [13],3190 nM
same,GI50,SK-OV-3 (ovarian); [14],3160 nM
same,GI50,"SN12C (renal); SN 12C, read-out: pGI50 (-log of molar concentration causing 50% inhibition of net cell growth) (converted)",2880 nM
same,GI50,SN12C (renal); [13],2870 nM
same,GI50,SNB-19 (CNS); [13],3170 nM
same,GI50,SNB-19 (CNS); [14],3160 nM
same,GI50,SW-620 (colon); [13],2000 nM
same,GI50,SW-620 (colon); [14],2000 nM
same,GI50,TD-47D (breast); [13],3090 nM
same,GI50,TD-47D (breast); [14],3090 nM
same,GI50,UACC-257 (melanoma); [13],8690 nM
same,GI50,UACC-257 (melanoma); [14],8710 nM
same,GI50,"Breast cancer cell lines; Breast panel, log of concentration in mol/L causing 50% inhibition of net cell growth, read-out: mean graph midpoint (MG_MID) of Log10 GI50 (converted)",3240 nM
same,LC50,"Breast cancer cell lines; Breast panel, log of concentration leading to 50% net cell death, read-out: mean graph midpoint (MG_MID) of Log10 LC50 (converted)",95500 nM
same,GI50,"Breast cancer cell lines; five breast cancer cell lines, exposure at least 48 hrs, read-out: GI50, range over the panel",2300 to 4670 nM
same,mean graph midpoint (MG_MID) of Log10 LC50,"CNS cancer cell lines; CNS panel, log of concentration leading to 50% net cell death",4.29
same,GI50,"CNS cancer cell lines; CNS panel, log of concentration in mol/L causing 50% inhibition of net cell growth, read-out: mean graph midpoint (MG_MID) of Log10 GI50 (converted)",3160 nM
same,GI50,"CNS cancer cell lines; six CNS cancer cell lines, exposure at least 48 hrs, read-out: GI50, range over the panel",1780 to 10500 nM
same,mean graph midpoint (MG_MID) of Log10 LC50,"Colon cancer cell lines; Colon panel, log of concentration leading to 50% net cell death",4.53
same,GI50,"Colon cancer cell lines; Colon panel, log of concentration in mol/L causing 50% inhibition of net cell growth, read-out: mean graph midpoint (MG_MID) of Log10 GI50 (converted)",2040 nM
same,GI50,"Colon cancer cell lines; seven colon cancer cell lines, exposure at least 48 hrs, read-out: GI50, range over the panel",1460 to 3400 nM
same,GI50,"[8]; Leukemia panel, log of concentration in mol/L causing 50% inhibition of net cell growth, read-out: mean graph midpoint (MG_MID) of Log10 GI50 (converted)",1380 nM
same,LC50,"[8]; Leukemia panel, log of concentration leading to 50% net cell death, read-out: mean graph midpoint (MG_MID) of Log10 LC50 (converted)",55000 nM
same,GI50,"[8]; two leukemia cancer cell lines (RPMI-8226 and K-562), exposure at least 48 hrs, read-out: GI50, range over the panel",1330 to 1420 nM
same,GI50,"[9]; Melanoma panel, log of concentration in mol/L causing 50% inhibition of net cell growth, read-out: mean graph midpoint (MG_MID) of Log10 GI50 (converted)",2820 nM
same,GI50,"[9]; nine melanoma cancer cell lines, exposure at least 48 hrs, read-out: GI50, range over the panel",1630 to 8690 nM
same,mean graph midpoint (MG_MID) of Log10 LC50,"[9]; Melanoma panel, log of concentration leading to 50% net cell death",4.32
same,GI50,"[10]; Non-small cell lung panel, log of concentration in mol/L causing 50% inhibition of net cell growth, read-out: mean graph midpoint (MG_MID) of Log10 GI50 (converted)",3550 nM
same,LC50,"[10]; Non-small cell lung panel, log of concentration leading to 50% net cell death, read-out: mean graph midpoint (MG_MID) of Log10 LC50 (converted)",85100 nM
same,GI50,"[10]; nine non-small cell lung cancer cell lines, exposure at least 48 hrs, read-out: GI50, range over the panel",1260 to 9610 nM
same,GI50,"[11]; Ovarian panel, log of concentration in mol/L causing 50% inhibition of net cell growth, read-out: mean graph midpoint (MG_MID) of Log10 GI50 (converted)",2750 nM
same,LC50,"[11]; Ovarian panel, log of concentration leading to 50% net cell death, read-out: mean graph midpoint (MG_MID) of Log10 LC50 (converted)",43700 nM
same,GI50,"[11]; six ovarian cancer cell lines, exposure at least 48 hrs, read-out: GI50, range over the panel",1560 to 4640 nM
same,GI50,"[12]; Homo sapiens, log of concentration in mol/L causing 50% inhibition of net cell growth, read-out: mean graph midpoint (MG_MID) of Log10 GI50 (converted)",1950 nM
same,LC50,"[12]; Homo sapiens, log of concentration leading to 50% net cell death, read-out: mean graph midpoint (MG_MID) of Log10 LC50 (converted)",66100 nM
same,mean graph midpoint (MG_MID) of Log10 TGI,[12]; log of concentration resulting in total inhibition of net cell growth,5.20
same,GI50,"Renal cancer cell lines; Renal panel, log of concentration in mol/L causing 50% inhibition of net cell growth, read-out: mean graph midpoint (MG_MID) of Log10 GI50 (converted)",2950 nM
same,LC50,"Renal cancer cell lines; Renal panel, log of concentration leading to 50% net cell death, read-out: mean graph midpoint (MG_MID) of Log10 LC50 (converted)",63100 nM
same,GI50,"Renal cancer cell lines; eight renal cancer cell lines, exposure at least 48 hrs, read-out: GI50, range over the panel",1670 to 6400 nM
